Data as given in US20240246995A1, “PYRIMIDINONE DERIVATIVE AND PREPARATION METHOD THEREFOR, PHARMACEUTICAL COMPOSITION, AND USE” (SHANGHAI SIMR BIOTECHNOLOGY CO., LTD., priority 2021, published 2024).

target: T1, Lipoprotein-Related Phospholipase A2 (Lp-PLA2) in Human Plasma (Homo sapiens, UniProt Q13093); assay: Determination of Lp-PLA2 in human plasma (Thio-PAF assay); type: biochemical; conditions: mixed human plasma, 2-thio-PAF substrate, 30 minutes pre-incubation at room temperature
T1 construct: 40 μL of equally-divided and thawed mixed human plasma is pre-added; from tissue; host or cells: mixed (pooled) human plasma
T1 sequence (Q13093 22-441): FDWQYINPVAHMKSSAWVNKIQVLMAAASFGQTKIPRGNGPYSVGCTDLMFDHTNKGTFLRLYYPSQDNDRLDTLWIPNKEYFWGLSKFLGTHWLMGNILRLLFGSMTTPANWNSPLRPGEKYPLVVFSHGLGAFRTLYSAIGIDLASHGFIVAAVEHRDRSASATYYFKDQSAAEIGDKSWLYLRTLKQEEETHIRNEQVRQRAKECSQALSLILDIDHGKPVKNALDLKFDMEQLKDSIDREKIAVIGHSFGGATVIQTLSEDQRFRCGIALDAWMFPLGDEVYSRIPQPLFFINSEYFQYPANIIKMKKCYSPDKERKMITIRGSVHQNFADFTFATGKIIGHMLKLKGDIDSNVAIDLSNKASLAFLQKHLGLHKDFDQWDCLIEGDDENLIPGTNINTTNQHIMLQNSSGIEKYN
Description: Determination of Lipoprotein-Related Phospholipase A2 (Lp-PLA2) in Human Plasma.
Human plasma determination utilizes a thioester analogue of phosphatidylcholine (PAF), where hydrolysis leads to the formation of phospholipids containing free thiol groups. The amount of the thiol groups is continuously determined by reacting with CPM (7-diethylamino-3-(4′-maleimidophenyl)-4-methylcoumarin), which is maleimide with increased fluorescence after Michael addition of the thiol groups. This determination can detect the activity of Lp-PLA2 in human plasma, for example, determined by the specific inhibition of the Lp-PLA2 inhibitors.
Thio-PAF determination, as quenched 75 μL determination, is carried out. A compound source plate is prepared by preparing a 1:3 (volume) series of diluents of each compound in pure DMSO on a 96-well microplate. A Rainin multi-channel pipette is used to transfer 3 μL of a compound on the compound source plate into a 96-well microplate where 57 μL of a determination buffer is pre-added, and the compound on the source plate is diluted by 20 folds. The above determination buffer contains 50 mM HEPES (pH 7.4), 150 mM NaCl, and 1 mM CHAPS. A Rainin multi-channel pipette is used to transfer 1 μL of the compound subjected to 20-fold dilution into a 96-well Greiner 655076 (black) microplate where 40 μL of equally-divided and thawed mixed human plasma is pre-added. The plate is oscillated for 20 seconds in an Elisa plate oscillator to be mixed evenly. After 30 minutes of pre-incubation at the room temperature, a Rainin multi-channel pipette is used to add 10 μL of a substrate solution to a 96-well Greiner 655076 (black) microplate, and the substrate solution contains 2.5 mM 2-thio-PAF [from ethanol mother liquor], 32 μM CPM [from DMSO mother liquor] and 3.2 mM NEM (N-ethylmaleimide) [newly prepared in DMSO for each experiment] in a determination buffer composed of 50 mM HEPES (pH 7.4), 150 mM NaCl, and 1 mM CHAPS. After 2 minutes, 25 μL of a 5% trifluoroacetic acid (TFA) aqueous solution is used for quenching the reaction. The plate is centrifuged at 2000 rpm for 1 minute. A Biotek Synergy H1 (H1MF) Elisa reader is used to read the plate at ex:380/em:485. GraphPad Prism 6.0 and Excel are used for IC50 data, curve, and QC analysis.

Going from O=c1nc(OCc2cc(F)c(Oc3cnc(C(F)(F)F)nc3)c(F)c2)cc2n1CCC13CC(CN21)C3 [Example 20, 2-((3,5-difluoro-4-((2-(trifluoromethyl)pyrimidin-5-yl)oxy)benzyl)oxy)-6,7,9,10-tetrahydro-4H,8H-7a,9-methano-pyrimido[1,6-a] pyrrolo[1,2-c] pyrimidine-4-one] to O=c1nc(OCc2cc(F)c(Oc3cnc(C(F)(F)F)nc3)c(F)c2)cc2n1CC[C@@]13CO[C@@H](CN21)C3 [Example 27], the IC50 falls from 37.5 nM to 4.6 nM (8.2-fold).

N#Cc1cc(COc2cc3n(c(=O)n2)CCC24CC(CN32)C4)ccc1F [Example 21] and CC12CCCN1c1cc(OCc3ccc(F)c(C#N)c3)nc(=O)n1CC2 (centres unmarked) [Example 37] are within 1.5-fold of each other in IC50: 24.2 nM for the first, 34 nM for the second.

Going from O=c1nc(OCCc2ccc(Oc3ccc(Cl)c(C(F)(F)F)c3)cc2)cc2n1CCC13CC(CN21)C3 [Example 22, 2-(4-(4-chloro-3-(trifluoromethyl)phenoxy)phenyl-ethoxy)-6,7,9,10-tetrahydro-4H,8H-7a,9-methano-pyrimido [1,6-a]pyrrolo[1,2-c] pyrimidine-4-one] to O=c1nc(OCCc2ccc(Oc3ccc(Cl)c(C(F)(F)F)c3)cc2)cc2n1CC[C@@]13CO[C@@H](CN21)C3 [Example 28, (7aR,10R)-2-(4-(4-chloro-3-(trifluoro-methyl)phenoxy)phenylethoxy)-6,7, 10,11-tetrahydro-4H,8H-7a,10-methanopyrimido [6′,1′:2,3] pyrimido[6,1-c] [1,4]oxazin-4-one], the IC50 falls from 120 nM to 13.3 nM (9-fold).

O=c1nc(OCc2cc(F)c(Oc3ccnc(C(F)(F)F)c3)c(F)c2)cc2n1CC[C@@]13CO[C@@H](CN21)C3 [Example 23] and O=c1nc(OCc2cc(F)c(Oc3ccnc(OC(F)(F)F)c3)c(F)c2)cc2n1CC[C@@]13CO[C@@H](CN21)C3 [Example 26] are within 1.5-fold of each other in IC50: 4.9 nM for the first, 6.6 nM for the second.

Compared with N#Cc1cc(COc2cc3n(c(=O)n2)CC[C@@]24CO[C@@H](CN32)C4)ccc1Oc1cccc(C(F)(F)F)c1 [Example 25], CCC12CCCN1c1cc(OCc3ccc(Oc4cccc(C(F)(F)F)c4)c(C#N)c3)nc(=O)n1CC2 (centres unmarked) [Example 40] is 1.6-fold higher in IC50: 6.5 nM for the first, 10.7 nM for the second. The first is the more potent here.

Going from O=c1nc(OCc2cc(F)c(Oc3ccnc(C(F)(F)F)c3)c(F)c2)cc2n1CCC1CCCN21 (centres unmarked) [Example 29, 2-((3,5-difluoro-4-((2-(trifluoromethyl)pyrid-4-yl)oxy)benzyl)oxy)-6,7,7a,8,9,10-hexahy-dro-4H-pyrimidinyl [1,6-a]pyrrolo [1,2-c]pyrimidine-4-one] to O=c1nc(OCc2cc(F)c(Oc3ccc(Cl)c(C(F)(F)F)c3)c(F)c2)cc2n1CCC1CCCN21 (centres unmarked) [Example 33, 2-((4-(4-chloro-3-(trifluoromethyl)phenoxy)-3,5-di-fluorobenzyl)oxy)-6,7,7a,8,9,10-hexahydro-4H-pyrimidinyl [1,6-a]pyrrolo [1,2-c]pyrimidine-4-one], the IC50 falls from 54.1 nM to 24.7 nM (2.2-fold).

O=c1nc(OCc2cc(F)c(Oc3cnc(C(F)(F)F)nc3)c(F)c2)cc2n1CCC1CCCN21 (centres unmarked) [Example 31] and O=c1nc(OCc2cc(F)c(Oc3cnc(C(F)(F)F)nc3)c(F)c2)cc2n1CCC1CCCCN21 (centres unmarked) [Example 45, 2-((3,5-difluoro-4-((2-(trifluoromethyl)pyrimidin-5-yl)oxy)benzyl)oxy)-7,7a,8,9,10,11-hexahydro-4H,6H-pyridino[1,2-c]pyri-mido[1,6-a] pyrimidine-4-one] are within 1.5-fold of each other in IC50: 97.1 nM for the first, 66.5 nM for the second.

Going from N#Cc1cc(COc2cc3n(c(=O)n2)CCC2CCCN32)ccc1Oc1cccc(C(F)(F)F)c1 (centres unmarked) [Example 32] to N#Cc1cc(COc2cc3n(c(=O)n2)CCC2CCCCN32)ccc1Oc1cccc(C(F)(F)F)c1 (centres unmarked) [Example 44], the IC50 falls from 45.7 nM to 14.9 nM (3.1-fold).

Compared with CC12CCCN1c1cc(OCc3ccc(Oc4ccnc(C(F)(F)F)c4)c(F)c3)nc(=O)n1CC2 (centres unmarked) [Example 34, 2-((3-fluoro-4-((2-(trifluoromethyl)pyrid-4-yl)oxy)benzyl)oxy)-7a-methyl-6,7,7a,8,9,10-hexahydro-4H-pyri-midinyl[1,6-a] pyrrolo[1,2-c] pyrimidine-4-one], CC12CCCCN1c1cc(OCc3ccc(Oc4ccnc(C(F)(F)F)c4)c(F)c3)nc(=O)n1CC2 (centres unmarked) [Example 49, 2-((3-fluoro-4-((2-(trifluoromethyl)pyrid-4-yl)oxy)benzyl)oxy)-7a-methyl-7,7a,8,9,10,11-hexahydro-4H,6H-pyridino[1,2-c] pyrimidine[1,6-a] pyrimidine-4-one] is 6.2-fold lower in IC50: 9.9 nM for the first, 1.6 nM for the second. The second is the more potent here.

Going from Cc1cc(Oc2c(F)cc(COc3cc4n(c(=O)n3)CCC3(C)CCCN43)cc2F)ccn1 (centres unmarked) [Example 35, 2-((3,5-fluoro-4-((2-methylpyrid-4-yl)oxy)benzyl)oxy)-7a-methyl-6,7,7a, 8,9,10-hexahydro-4H-pyrimidinyl [1,6-a]pyrrolo[1,2-c] pyrimidine-4-one] to Cc1cc(Oc2c(F)cc(COc3cc4n(c(=O)n3)CCC3(C)CCCCN43)cc2F)ccn1 (centres unmarked) [Example 50, 2-((3,5-difluoro-4-((2-methylpyrid-4-yl)oxy)benzyl)oxy)-7a-methyl-7,7a,8,9,10,11-hexahydro-4H,6H-pyridino [1,2-c]pyrimidine [1,6-a]pyrimidine-4-one], the IC50 falls from 23.2 nM to 12.9 nM (1.8-fold).

Compared with CC12CCCN1c1cc(OCc3cc(F)c(Oc4ccnc(Cl)c4)c(F)c3)nc(=O)n1CC2 (centres unmarked) [Example 36], CCC12CCCN1c1cc(OCc3cc(F)c(Oc4ccnc(C(F)(F)F)c4)c(F)c3)nc(=O)n1CC2 (centres unmarked) [Example 38, 2-((3,5-difluoro-4-((2-(trifluoromethyl)pyrid-4-yl)oxy)benzyl)oxy)-7a-ethyl-6,7,7a,8,9,10-hexahydro-4H-pyrimido[1,6-a] pyrrolo[1,2-c] pyrimidine-4-one] is 2.1-fold lower in IC50: 17.4 nM for the first, 8.1 nM for the second.

First: CCC12CCCN1c1cc(OCc3cc(F)c(Oc4ccc(Cl)c(C(F)(F)F)c4)c(F)c3)nc(=O)n1CC2 (centres unmarked) [Example 39, 2-((4-(4-chloro-3-(trifluoromethyl)phenoxy)-3,5-difluorobenzyl)oxy)-7a-ethyl-6,7,7a,8,9, 10-hexahydro-4H-pyrimidinyl[1,6-a] pyrrolo[1,2-c] pyrimidine-4-one]
Second: O=c1nc(OCc2cc(F)c(Oc3ccc(Cl)c(C(F)(F)F)c3)c(F)c2)cc2n1CCC1CCCCN21 (centres unmarked) [Example 43, 2-((4-(4-chloro-3-(trifluoromethyl)phenoxy)-3,5-di-fluorobenzyl)oxy)-7,7a,8,9,10,11-hexahydro-4H,6H-pyri-dyl[1,2-c]pyrimido [1,6-a]pyrimidine-4-one]
The IC50 of the first is 2.8-fold higher: 33.1 nM for the first, 11.9 nM for the second.

CCC12CCCN1c1cc(OCCc3ccc(Oc4ccc(Cl)c(C(F)(F)F)c4)cc3)nc(=O)n1CC2 (centres unmarked) [Example 41, 2-(4-(4-chloro-3-(trifluoromethyl)phenoxy)phenyl-ethoxy)-7a-ethyl-6,7,7a, 8,9,10-hexahydro-4H-pyrimidine [1,6-a]pyrrole[1,2-c]pyrimidine-4-one] and O=c1nc(OCCc2ccc(Oc3ccc(Cl)c(C(F)(F)F)c3)cc2)cc2n1CCC1CCCCN21 (centres unmarked) [Example 46, 2-(4-(4-chloro-3-(trifluoromethyl)phenoxy)phenylethoxy)-7,7a,8,9,10,11-hexahydro-4H, 6H-pyridyl[1,2-c] pyrimidinyl[1,6-a] pyrimidine-4-one] are within 1.5-fold of each other in IC50: 235 nM for the first, 220 nM for the second.

First: O=c1nc(OCc2ccc(Oc3ccnc(C(F)(F)F)c3)c(F)c2)cc2n1CCC1CCCCN21 (centres unmarked) [Example 42, 2-((3-fluoro-4-((2-(trifluoromethyl)pyrid-4-yl)oxy)benzyl)oxy)-7,7a,8,9,10,11-hexahydro-4H,6H-pyridine[1,2-c]pyrimidine[1,6-a]pyrimidine-4-one]
Second: O=c1nc(OCc2ccc(Oc3ccnc(C(F)(F)F)c3)c(F)c2)cc2n1CC[C@@H]1CCCCN21 [Example 47, (S)-2-((3-fluoro-4-((2-(trifluoromethyl)pyrid-4-yl)oxy)benzyl)oxy)-7,7a, 8,9,10,11-hexahydro-4H,6H-pyridino[1,2-c] pyrimidine[1,6-a] pyrimidine-4-one]
The IC50 of the first is 1.7-fold higher: 24.4 nM for the first, 14.6 nM for the second. The second is the more potent here.

Compound COc1c(OCc2ccc(Oc3ccnc(C(F)(F)F)c3)c(F)c2)nc(=O)n2c1N1CCCC[C@H]1CC2 [Example 48] has an IC50 of 5.1 nM.
